According to patent publication US8748462B2, “Spirocyclic GPR40 modulators” (Amgen Inc., priority 2008, dated 2014):

What was measured:
[1] = biological target: T1, human GPR40 (Homo sapiens, UniProt O14842); assay: Cell-based aequorin assay; settings: CHO cells stably transfected with GPR40 and aequorin; 0.01% HSA
T1 construct: expressed in transfected cells; host or cells: CHO cells stably transfected with GPR40 and Aequorin
Experimental: Cell-based aequorin assays were employed to characterize the modulatory activity of compounds on the GPR40 signaling pathway. In an exemplary assay, CHO cells were stably transfected with both GPR40 and Aequorin (Euroscreen). Cells were detached from the tissue culture dish with 2 mL of trypsin (0.25% (w/v)). Trypsinization was halted with 28 mL of Hanks Buffered Salt Solution containing 20 mM Hepes (H/HBSS) and 0.01% fatty acid-free human serum albumin (HSA). Coelantrazine is added to 1 ug/mL, and the cells were incubated for 2 hours at room temperature. Compounds were dissolved in DMSO for preparation of 10 mM stock solutions. Compounds were diluted in H/HBSS containing 0.01% HSA. Serial dilutions of the test compounds were prepared to determine dose response.
Aequorin luminescence measurements were made using an EG&G Berthold 96-well luminometer, and the response was measured over a 20 second interval after cells and compounds were mixed. The maximum relative light units was plotted to determine dose response. The EC50 (effective concentration to reach 50% maximal response) was determined from the dose response plot.

[2] = biological target: T1, human GPR40; assay: Inositol phosphate accumulation assay; format: cell-based; settings: A9 cell line stably transfected with GPR40; 1 hour at 37° C.; read-out: IP3 EC50
Experimental: An A9 cell line stably transfected with GPR40 (A9_GPR40) was used in IP accumulation assays. A9_GPR40 cells were plated in 96-well plates containing 20,000 cells/well in DMEM containing 10% FBS. After the cells attached to the well surface, the media was replaced with inositol free DMEM containing 10% dialyzed FBS and 1 μCi, mL ^3H-inositol and incubated for 16 hours. Compounds were diluted in HBSS/10 mM LiCl containing a desired amount of HSA and added directly to cells. Following 1 hour incubation at 37° C., the media was replaced with 100 μL of 20 mM formic acid to quench the reaction. 50 μL of the extract was then added to 100 μL of SPA beads, incubated overnight, and measured on a TopCount the following day.

T1 sequence (O14842 whole entry): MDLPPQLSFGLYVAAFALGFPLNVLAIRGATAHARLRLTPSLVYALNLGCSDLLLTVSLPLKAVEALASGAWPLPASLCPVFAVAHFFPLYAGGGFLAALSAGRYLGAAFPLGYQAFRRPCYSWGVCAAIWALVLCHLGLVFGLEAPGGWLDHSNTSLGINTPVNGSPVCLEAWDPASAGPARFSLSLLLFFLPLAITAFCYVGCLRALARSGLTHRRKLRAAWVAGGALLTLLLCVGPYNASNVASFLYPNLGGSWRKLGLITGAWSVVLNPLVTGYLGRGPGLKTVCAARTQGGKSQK

Structure (SMILES)	EC50 [1]	EC50 [2]
COc1ccc(F)c(-c2cc(F)c(COc3ccc4c(c3)[C@]3(CC4)C[C@H]3C(=O)O)cc2[C@H]2CCCC2(C)C)c1 (single isomer, unassigned) [Example 14]	100 to 1000 nM	< 10 nM
COc1ccc(F)c(-c2c(F)cc(COc3ccc4c(c3)[C@]3(CC4)C[C@H]3C(=O)O)cc2[C@@H]2CCCC2(C)C)c1 (single isomer, unassigned) [Example 18]	100 to 1000 nM	< 10 nM
COc1cc(-c2ccc(COc3ccc4c(c3)[C@]3(CC4)C[C@H]3C(=O)O)cc2[C@@H](OC)C(C)(C)C)c(F)cn1 (single isomer, unassigned) [Example 28]	100 to 1000 nM	< 10 nM
COc1cc(-c2ccc(COc3ccc4c(c3F)[C@]3(CC4)C[C@H]3C(=O)O)cc2[C@@H](OC)C(C)(C)C)c(F)cn1 (single isomer, unassigned) [Example 30]	10 to 100 nM	< 10 nM
COc1ccc(F)c(-c2ccc(COc3ccc4c(c3F)[C@]3(CC4)C[C@H]3C(=O)O)cc2[C@@H](OC)C(C)(C)C)c1 (single isomer, unassigned) [Example 31]	10 to 100 nM	< 10 nM
COc1cc(-c2ccc(COc3ccc4c(c3F)[C@]3(CC4)C[C@H]3C(=O)O)cc2[C@@H]2CCCC2(C)C)c(F)cn1 (single isomer, unassigned) [Example 32]	100 to 1000 nM	< 10 nM
COc1ccc(F)c(-c2ccc(COc3cc(F)c4c(c3F)[C@]3(CC4)C[C@H]3C(=O)O)cc2[C@H]2CCCC2(C)C)c1 (single isomer, unassigned) [Example 33]	100 to 1000 nM	< 10 nM
COc1cc(-c2ccc(COc3cc(F)c4c(c3F)[C@]3(CC4)C[C@H]3C(=O)O)cc2[C@@H]2CCCC2(C)C)c(F)cn1 (single isomer, unassigned) [Example 41, (1R,2R)-6′-(3-((R)-2,2-dimethylcyclopentyl)-4-(5-fluoro-2-methoxypyridin-4-yl)benzyloxy)-4′,7′-difluoro-2′,3′-dihydrospiro[cyclopropane-1,1′-indene]-2-carboxylic acid or (1S,2S)-6′-(3-((R)-2,2-dimethylcyclopentyl)-4-(5-fluoro-2-methoxypyridin-4-yl)benzyloxy)-4′,7′-difluoro-2′,3′-dihydrospiro[cyclopropane-1,1′-indene]-2-carboxylic acid]	100 to 1000 nM	< 10 nM
COc1cc(-c2ccc(COc3ccc4c(c3)[C@]3(CCC4)C[C@H]3C(=O)O)cc2[C@@H](OC)C(C)(C)C)c(F)cn1 (single isomer, unassigned) [Example 44]	10 to 100 nM	< 10 nM
COc1ccc(F)c(-c2cc(F)c(COc3ccc4c(c3)[C@]3(CCC4)C[C@H]3C(=O)O)cc2[C@H]2CCCC2(C)C)c1 (single isomer, unassigned) [Example 45]	100 to 1000 nM	< 10 nM

Next, values leading:

EC50 [1]	EC50 [2]	Structure (SMILES)
10 to 100 nM	< 10 nM	COc1ccc(F)c(-c2ccc(COc3ccc4c(c3)[C@]3(CC4)C[C@H]3C(=O)O)cc2[C@H]2CCCC2(C)C)c1 (single isomer, unassigned) [Example 11]
10 to 100 nM	< 10 nM	COc1ccc(F)c(-c2ccc(COc3ccc4c(c3)[C@]3(CC4)C[C@H]3C(=O)O)cc2[C@@H](OC)C(C)(C)C)c1 (single isomer, unassigned) [Example 12]
10 to 100 nM	< 10 nM	COc1ccc(F)c(-c2ccc(COc3ccc4c(c3)[C@]3(CC4)C[C@H]3C(=O)O)cc2[C@H]2CCCCC2(C)C)c1 (single isomer, unassigned) [Example 15]
10 to 100 nM	< 10 nM	COc1ccc(F)c(-c2c(F)cc(COc3ccc4c(c3)[C@]3(CC4)C[C@H]3C(=O)O)cc2[C@H]2CCCC2(C)C)c1 (single isomer, unassigned) [Example 16]
10 to 100 nM	< 10 nM	COc1cc(-c2cc(F)c(COc3ccc4c(c3)[C@]3(CC4)C[C@H]3C(=O)O)cc2[C@@H]2CCCC2(C)C)c(F)cn1 (single isomer, unassigned) [Example 17]
